Data on three compounds can be found in patent publication US9733254B2, “Methods and apparatus for the in vitro modelling of drug administration” (THE UNIVERSITY OF BATH, priority 2012, dated 2017).

A short description of data set [1]: Release of excipient from the simulated injection site, HPLC of bath aliquots. The class given is in vitro ADME. As to conditions: excipient of generic insulin formulation, 0.5 ml injected; buffer in the cassette. Here is the method: Shortly after injection, the protein solubility level decreased as indicated by the drop in % T. As the environment within the cassette equilibrated with the surrounding physiological conditions and the pH shifted towards 7.4, the protein re-solubilised as indicated by the increase in the % T level. The release profile of an excipient, m-cresol, from the injection site was determined from aliquots taken from the surrounding buffer bath at different time points by HPLC following the method specified in “Biodegradation characterisation and kinetics of m-cresol by Lysinibacillus cresolivorans” in Water SA (Online) vol. 37 no. 1 Pretoria January 2011.

Data set [2] can be described thus: Diffusion through the DERMAROLLER-modified 14000 MWCO dialysis membrane. The class given is physicochemical. As to conditions: modified membrane with cut off of 14000 MWCO. The source says: As an example, the membrane used in the system was Biodesing dialysis tubing with a molecular weight cut off diameter of 14000 Da. A 3 cm piece of the tubing was cut and the edges were removed to form two sheets of membrane. These sheets of membrane, whilst not separated from each other, were fully hydrated by soaking in deionised water and subsequently placed on Styrofoam covered with aluminium foil. The membrane permeability was then modified using a DERMAROLLER microneedle device. The membrane used can be transparent. […] In contrast, for rhodamine (MW~500 Da) the diffusion through the same membrane took place in one phase. The holes can be made with a DERMAROLLER microneedle device, or with any other method producing size and spatial distribution of holes suitable for the application. The diameter of the holes should be between 0.1 and a 10 micrometers and the spacing between any two adjacent holes between 0.1 and 10 mm.
As an example (FIG. 4), for a series of fluorescent small organic molecules (methylene blue and rhodamine) and fluorescently labelled dextrans with molecular weights between 4 kDa and 2 MDa, the rate constant of diffusion (k, [min^−1]) through the membranes after the modification followed the equation k=−0.01362 log10 (MW of the compound)+0.06065. (R^2=0.9996)

Turning to `Cc1cccc(O)c1` [m-cresol], in data set [1], the “time until all the excipient in the injected formulation has left the injection site” value is “less than 50 minutes”.
For the compound `CN(C)c1ccc2nc3ccc(=[N+](C)C)cc-3sc2c1` [methylene blue], in data set [2], the “mode of diffusion through the modified membrane” value is “two phase diffusion”.
On the same count and under the same terms, for rhodamine the value was “one phase”.
